According to US12077503B2, “Substituted cyclic amides and their use as herbicides” (FMC CORPORATION, priority 2015, dated 2024):
Read-outs that look alike come from different tables or passages of the source.

Tests used:
Assay type in all cases: in vivo
[1] = test system: sedge, umbrella (small-flower umbrella sedge, Cyperus difformis); experiment: Test B flooded paddy test; details: Cyperus difformis, Flood, 250 g ai/ha, read-out: Sedge, Umbrella plant response rating
How it was run: (§1)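 Rating scale 0–100 (visual, vs untreated controls) after a 13–15 d greenhouse period; application to the flood layer, 3 cm above soil and maintained; plants at 2-leaf stage when treated.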

[2] = test system: ducksalad (Heteranthera limosa); experiment: Test B flooded paddy test; details: Heteranthera limosa, Flood, 250 g ai/ha; scale of 0 to 100 where 0 is no effect and 100 is complete control; read-out: Ducksalad plant response rating
How it was run: as §1

[3] = test system: barnyardgrass (Echinochloa crus-galli); experiment: Test B flooded paddy test; details: Echinochloa crus-galli, Flood, 250 g ai/ha; scale of 0 to 100 where 0 is no effect and 100 is complete control; read-out: Barnyardgrass plant response rating
How it was run: as §1

[4] = test system: rice (Oryra sativa); experiment: Test B flooded paddy test; details: Oryza sativa, Flood, 250 g ai/ha; scale of 0 to 100 where 0 is no effect and 100 is complete control; read-out: Rice plant response rating
How it was run: as §1

[5] = test system: pigweed (Amaranthus retroflexus); experiment: Test A postemergence; details: Amaranthus retroflexus, post-emergence, 240 h, 125 g ai/ha, Postemergence; visual injury after approximately 10 d; 0 to 100 scale where 0 is no effect and 100 is complete control; read-out: Plant response rating, Pigweed
How it was run: (§2)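 Ratings of 0 (no effect) to 100 (complete control) come from visual comparison with untreated controls roughly 10 d after treatment. Test chemicals, formulated in a non-phytotoxic solvent mixture with surfactant, were applied either as a preemergence directed soil spray on seeded soil or postemergence to one- to two-leaf plants 2 to 10 cm tall.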

[6] = test system: Kochia (Kochia scoparia); experiment: Test A postemergence; details: Bassia scoparia, post-emergence, 240 h, 125 g ai/ha, Postemergence; visual injury after approximately 10 d; 0 to 100 scale where 0 is no effect and 100 is complete control; read-out: Plant response rating, Kochia
How it was run: as §2

[7] = test system: ryegrass, Italian (Italian ryegrass, Lolium multiflorum); experiment: Test A postemergence; details: Lolium multiflorum, post-emergence, 240 h, 125 g ai/ha, Postemergence; visual injury after approximately 10 d; 0 to 100 scale where 0 is no effect and 100 is complete control; read-out: Plant response rating, Ryegrass, Italian
How it was run: as §2

[8] = test system: blackgrass (Alopecurus myosuroides); experiment: Test A postemergence; details: Alopecurus myosuroides, post-emergence, 240 h, 125 g ai/ha, Postemergence; visual injury after approximately 10 d; 0 to 100 scale where 0 is no effect and 100 is complete control; read-out: Plant response rating, Blackgrass
How it was run: as §2

[9] = test system: wheat (Triticum aestivum); experiment: Test A postemergence; details: Triticum aestivum, post-emergence, 240 h, 125 g ai/ha, Postemergence; visual injury after approximately 10 d; 0 to 100 scale where 0 is no effect and 100 is complete control; read-out: Plant response rating, Wheat
How it was run: as §2

[10] = test system: corn (Zea mays); experiment: Test A postemergence; details: Zea mays, post-emergence, 240 h, 125 g ai/ha, Postemergence; visual injury after approximately 10 d; 0 to 100 scale where 0 is no effect and 100 is complete control
How it was run: as §2

[11] = test system: ragweed (common ragweed, Ambrosia elatior); experiment: Test A postemergence; details: Ambrosia artemisiifolia, post-emergence, 240 h, 125 g ai/ha, Postemergence; visual injury after approximately 10 d; 0 to 100 scale where 0 is no effect and 100 is complete control; read-out: Plant response rating, Ragweed
How it was run: as §2

[12] = test system: giant foxtail (Setaria faberii); experiment: Test A postemergence; details: Setaria faberi, post-emergence, 240 h, 125 g ai/ha, Postemergence; visual injury after approximately 10 d; 0 to 100 scale where 0 is no effect and 100 is complete control; read-out: Plant response rating, Foxtail, Giant
How it was run: as §2

[13] = test system: pigweed (Amaranthus retroflexus); experiment: Test A preemergence; details: Amaranthus retroflexus, pre-emergence, 240 h; for pest or weed control at 125 g/ha: 125 g ai/ha, Preemergence, visual injury rating after approximately 10 d, read-out: Pigweed plant response rating (0 to 100 scale, 0 is no effect, 100 is complete control); for pest or weed control at 500 g/ha: 500 g ai/ha, preemergence, visual injury rating about 10 d after treatment, 0 to 100 scale (0 no effect, 100 complete control), read-out: Pigweed plant response rating
[14] = test system: Kochia (Kochia scoparia); experiment: Test A preemergence; details: Bassia scoparia, pre-emergence, 240 h; for pest or weed control at 125 g/ha: 125 g ai/ha, Preemergence, visual injury rating after approximately 10 d, read-out: Kochia plant response rating (0 to 100 scale, 0 is no effect, 100 is complete control); for pest or weed control at 500 g/ha: 500 g ai/ha, preemergence, visual injury rating about 10 d after treatment, 0 to 100 scale (0 no effect, 100 complete control), read-out: Kochia plant response rating
How it was run: as §2

[15] = test system: ryegrass, Italian (Italian ryegrass, Lolium multiflorum); experiment: Test A preemergence; details: Lolium multiflorum, pre-emergence, 240 h; for pest or weed control at 125 g/ha: 125 g ai/ha, Preemergence, visual injury rating after approximately 10 d, read-out: Ryegrass, Italian plant response rating (0 to 100 scale, 0 is no effect, 100 is complete control); for pest or weed control at 500 g/ha: 500 g ai/ha, preemergence, visual injury rating about 10 d after treatment, 0 to 100 scale (0 no effect, 100 complete control), read-out: Ryegrass, Italian plant response rating
How it was run: as §2

[16] = test system: barnyardgrass (Echinochloa crus-galli); experiment: Test A preemergence; details: Echinochloa crus-galli, pre-emergence, 240 h; for pest or weed control at 125 g/ha: 125 g ai/ha, Preemergence, visual injury rating after approximately 10 d, read-out: Barnyardgrass plant response rating (0 to 100 scale, 0 is no effect, 100 is complete control); for pest or weed control at 500 g/ha: 500 g ai/ha, preemergence, visual injury rating about 10 d after treatment, 0 to 100 scale (0 no effect, 100 complete control), read-out: Barnyardgrass plant response rating
How it was run: as §2

[17] = test system: ragweed (common ragweed, Ambrosia elatior); experiment: Test A preemergence; details: Ambrosia artemisiifolia, pre-emergence, 240 h; for pest or weed control at 500 g/ha: 500 g ai/ha, preemergence, visual injury rating about 10 d after treatment, 0 to 100 scale (0 no effect, 100 complete control), read-out: Ragweed plant response rating
How it was run: as §2

[18] = test system: giant foxtail (Setaria faberii); experiment: Test A preemergence; details: Setaria faberi, pre-emergence, 240 h; for pest or weed control at 125 g/ha: 125 g ai/ha, Preemergence, visual injury rating after approximately 10 d, read-out: Foxtail, Giant plant response rating (0 to 100 scale, 0 is no effect, 100 is complete control); for pest or weed control at 500 g/ha: 500 g ai/ha, preemergence, visual injury rating about 10 d after treatment, 0 to 100 scale (0 no effect, 100 complete control), read-out: Foxtail, Giant plant response rating
How it was run: as §2

[19] = test system: Galium (catchweed bedstraw, Galium aparine); experiment: Test A postemergence; details: Galium, post-emergence, 240 h, 125 g ai/ha, Postemergence; visual injury after approximately 10 d; 0 to 100 scale where 0 is no effect and 100 is complete control; read-out: Plant response rating, Galium
How it was run: as §2

[20] = test system: barnyardgrass (Echinochloa crus-galli); experiment: Test A postemergence; details: Echinochloa crus-galli, post-emergence, 240 h, 125 g ai/ha, Postemergence; visual injury after approximately 10 d; 0 to 100 scale where 0 is no effect and 100 is complete control; read-out: Plant response rating, Barnyardgrass
How it was run: as §2

Row | SMILES | pest or weed control at 250 g/ha [2] [%] | pest or weed control at 250 g/ha [3] [%] | pest or weed control at 250 g/ha [4] [%] | pest or weed control at 125 g/ha [5] [%] | pest or weed control at 125 g/ha [7] [%] | pest or weed control at 125 g/ha [8] [%] | plant injury at 125 g/ha [9] [%] | Corn plant response rating (crop injury, 0 = no effect, 100 = complete kill) at 125 g/ha [10] [%] | pest or weed control at 125 g/ha [11] [%] | pest or weed control at 125 g/ha [12] [%] | pest or weed control at 125 g/ha [13] [%] | pest or weed control at 500 g/ha [13] [%] | pest or weed control at 125 g/ha [14] [%] | pest or weed control at 500 g/ha [14] [%] | pest or weed control at 125 g/ha [15] [%] | pest or weed control at 500 g/ha [15] [%] | pest or weed control at 125 g/ha [16] [%] | pest or weed control at 500 g/ha [16] [%] | pest or weed control at 500 g/ha [17] [%] | pest or weed control at 125 g/ha [18] [%] | also measured
1 | Cc1ccc([C@H]2CN(C)C(=O)[C@@H]2C(=O)Nc2cccc(F)c2C)cc1F [Compound 982] | 100 | 75 | 20 | 0 | 60 | 70 | 70 | 60 | 20 | 90 | 0 | 50 | 50 | 90 | 90 | 90 | 90 | 90 | 80 | 90 | pest or weed control at 250 g/ha ([1]; scale of 0 to 100 where 0 is no effect and 100 is complete control): 0%; pest or weed control at 125 g/ha [6]: 50%; pest or weed control at 500 g/ha [18]: 100%
2 | CC(=O)Oc1ccc(NC(=O)[C@H]2C(=O)N(C)C[C@@H]2c2cc(F)cc(F)c2)c(F)c1 [Compound 996] | 70 | 0 | 0 | 0 | 0 | 0 | 0 | 0 | 0 | 0 | 0 | 0 | 0 | 0 | 0 | 0 | 0 | 0 | 0 | 0 | pest or weed control at 250 g/ha ([1]; 0 to 100 scale where 0 is no effect and 100 is complete control): 0%; pest or weed control at 125 g/ha [19]: 0%; pest or weed control at 125 g/ha [20]: 0%; pest or weed control at 125 g/ha ([17]; 125 g ai/ha, Preemergence, visual injury rating after approximately 10 d, read-out: Ragweed plant response rating (0 to 100 scale, 0 is no effect, 100 is complete control)): 0%; pest or weed control at 500 g/ha [18]: 0%
